Reference: ChEMBL document CHEMBL3856200, “Isolation and Structure of Cancer Cell Growth Inhibitory Tetracyclic Triterpenoids from the Zimbabwean Monadenium lugardae” (2016)
Converted amounts (≈) assume the structure as drawn.

What was measured:
Assay type in all cases: functional
[1] = Cytotoxicity against human DU145 cells assessed as growth inhibition after 48 hrs by sulforhodamine B assay; settings: DU-145, 48 h
[2] = Cytotoxicity against human KM20L2 cells assessed as growth inhibition after 48 hrs by sulforhodamine B assay; settings: KM-20L2, 48 h
[3] = Cytotoxicity against mouse P388 cells assessed as growth inhibition after 48 hrs by coulter particle counting method; settings: P388, 48 h, read-out: ED50 (the source's name)
[4] = Cytotoxicity against human BxPC3 cells assessed as growth inhibition after 48 hrs by sulforhodamine B assay; settings: BXPC-3, 48 h
[5] = Cytotoxicity against human MCF7 cells assessed as growth inhibition after 48 hrs by sulforhodamine B assay; settings: MCF7, 48 h
[6] = Cytotoxicity against human NCI-H460 cells assessed as growth inhibition after 48 hrs by sulforhodamine B assay; settings: NCI-H460, 48 h
[7] = Cytotoxicity against human SF268 cells assessed as growth inhibition after 48 hrs by sulforhodamine B assay; settings: SF-268, 48 h

Structure (SMILES) | GI50 [1] | GI50 [2] | EC50 [3] | GI50 [4] | GI50 [5] | GI50 [6] | GI50 [7]
C[C@H](C/C=C/C(C)(C)O)[C@H]1CC[C@@]2(C)C3=C(CC[C@]12C)[C@@]1(C)CC[C@H](O)C(C)(C)[C@@H]1CC3 | 1.9 µg/mL (≈ 4.29 µM) | 1.8 µg/mL (≈ 4.07 µM) | > 10 µg/mL | 1.8 µg/mL (≈ 4.07 µM) | 2 µg/mL (≈ 4.52 µM) | 1.9 µg/mL (≈ 4.29 µM) | 1.9 µg/mL (≈ 4.29 µM)
C=C(C)[C@@H](O)CC[C@H](C)[C@@H]1CC=C2[C@]3(C)CC[C@H]4C(C)(C)[C@@H](O)CC[C@]4(C)[C@H]3CC[C@]21C | 0.65 µg/mL (≈ 1.47 µM) | 0.71 µg/mL (≈ 1.6 µM) | > 10 µg/mL | 0.83 µg/mL (≈ 1.87 µM) | 0.79 µg/mL (≈ 1.78 µM) | 0.91 µg/mL (≈ 2.06 µM) | 0.33 µg/mL (≈ 0.745 µM)
C=C(C)C(O)CC[C@@H](C)[C@@H]1CC[C@]2(C)C3=C(CC[C@@]12C)[C@@]1(C)CC[C@H](O)C(C)(C)[C@@H]1CC3 (some centres not stated) | 1.5 µg/mL (≈ 3.39 µM) | 7 µg/mL (≈ 15.8 µM) | > 10 µg/mL | 1.5 µg/mL (≈ 3.39 µM) | 2.5 µg/mL (≈ 5.65 µM) | 1.7 µg/mL (≈ 3.84 µM) | 1.4 µg/mL (≈ 3.16 µM)
C=C(C)[C@H](O)CC[C@H](C)[C@@H]1CC=C2[C@]3(C)CC[C@H]4C(C)(C)[C@@H](O)CC[C@]4(C)[C@H]3CC[C@]21C | 0.58 µg/mL (≈ 1.31 µM) | > 1 µg/mL | > 10 µg/mL | 0.2 µg/mL (≈ 0.452 µM) | 0.68 µg/mL (≈ 1.54 µM) | 0.19 µg/mL (≈ 0.429 µM) | 0.36 µg/mL (≈ 0.813 µM)
C[C@H](C/C=C/C(C)(C)O)[C@@H]1CC[C@]2(C)C3=C(CC[C@@]12C)[C@@]1(C)CC[C@H](O)C(C)(C)[C@@H]1CC3 | 1.9 µg/mL (≈ 4.29 µM) | 2 µg/mL (≈ 4.52 µM) | > 10 µg/mL | 1.8 µg/mL (≈ 4.07 µM) | 2.1 µg/mL (≈ 4.74 µM) | 1.9 µg/mL (≈ 4.29 µM) | 2.2 µg/mL (≈ 4.97 µM)
C[C@@H](C/C=C/C(C)(C)O)[C@H]1CC[C@@]2(C)C3=C(C(=O)C[C@@]12C)[C@@]1(C)CC[C@H](O)C(C)(C)[C@@H]1CC3 | > 1 µg/mL | > 1 µg/mL | > 10 µg/mL | > 1 µg/mL | > 1 µg/mL | > 1 µg/mL | > 1 µg/mL
